Patent USRE37770E1, “Treatment of skin conditions by use of PPARα activators” (The Regents of the University of California, priority 1997, dated 2002)

What was measured:
[1] = test system: Skin explants from gestational day 17 rats; assay: Light and electron microscopy of fetal rat skin explants (epidermal maturation); assay type: cell-based
Experimental: Samples for light microscopy were fixed in modified Karnovsky's solution, plastic-embedded, and 0.5 μm sections were stained with toluidine. Samples for electron microscopy were minced into 1 mm^3 pieces, fixed in modified Karnovsky's fixative, and processed. Sections were stained with uranyl acetate and lead citrate, post-fixed in ruthenium tetroxide, and examined using a Zeiss 10A electron microscope.
Explants incubated in various media woe examined by light microscopy. The incubation di included control medium (containing no activators) and various media individually containing 300 μM clofibrate, 100 μM juvenile hormone III, 300 μM oleic acid, 30 μM linoleic acid, 50 μM farnesol, and various concentrations of 9-cis-retinoic acid, all-trans-retinoic acid, and 1,25-dihydroxy vitamin D3.
Observations were then made of the ultrastructural maturation of the outer epidermis in explants that had been incubated in the various media and then post-fixed in ruthenium tetroxide. Media identical to those of the preceding paragraph were used, excluding the retinoic acid-containing and 1,25-dihydroxy vitamin D3-containing media.

fetal rodent skin = conditions: earlier studies (Hanley et al. 1996); cited from earlier work
[2] = test system: full-thickness flank skin from the fetal rats; assay: Transepidermal water loss (TEWL) of fetal rat skin explants in organ culture (barrier function); assay type: cell-based, Sprague-Dawley rats; conditions: for EC50: Rattus norvegicus, read-out: concentration of half-maximal effect on barrier development (TEWL); for EC50 / concentration of maximal effect on barrier development (TEWL): dose response, FIGS. 4a-4c
Experimental: Timed pregnant Sprague-Dawley rats (plug date=day 0) were obtained from Simonsen (Gilroy, Calif., USA) and fetuses were delivered prematurely on day 17. Transepidermal water loss (TEWL) was measured in excised full-thickness flank skin from the fetal rats after various times in culture. The skin explants were placed dermis-side down onto collagen membrane inserts (3μ pore size) in medium M-199 (serum-free), and submerged, and the lateral edges and dermal surface were sealed with petrolatum, such that water loss occurred only through the epidermal surface. Explant samples were weighed hourly, at ambient temperature (24±3° C.) and humidity (40±5%), over 6 hours using a Cahn balance (sensitivity 0.001 mg). TEWL levels are reported as milligrams of water lost per square millimeter of epidermal surface per hour. Fatty acids and clofibrate (p-chlorophenoxyisobutyric acid) were added to the medium bound to 0.5% (weight/volume) bovine serum albumin (BSA). Isoprenoids and oxysterols were added in ethanol (≦0.1%) and juvenile hormone III was added as a dimethylsulfoxide (DMSO) solution (≦0.1%). Control explants were incubated in the presence of the appropriate vehicle (≦0.1% DMSO or ethanol, and/or ≦0.5% BSA). Skin explants from gestational day 17 rats were incubated in the presence of either various activators or vehicle, and transepidermal water loss was measured after two days. The activators and the concentrations at which they were used were as follows: […]

involucrin protein = assay: Involucrin protein level in keratinocytes by Western Blot; assay type: cell-based, Human; conditions: 0 to 15 μM, 0.03 mM Ca++, 24 hours
Experimental: Measurements of the level of the involucrin protein itself were performed in the culture medium by Western Blot. Various incubations were performed, in media containing clofibrate at concentrations ranging from 0 (vehicle only) to 400 μM and calcium ion at both 0.03 mM and 1.2 mM. The results are shown in FIG. 9a for tests with calcium ion at 0.03 mM, and in FIG. 9b for tests with calcium ion at 1.2 mM. In these figures, the protein contents are expressed as percents of the respective measurements taken from media incubated for the same period of time but in the absence of clofibrate.
The procedures of Example 8 were followed, and measurements were taken on the involucrin protein levels from cells incubated at various concentrations of farnesol and juvenile hormone III ranging from 0 (vehicle only) to 15 μM, in media containing 0.03 mM and 1.2 mM calcium ion, for 24 hours. The results are shown in FIG. 10 for farnesol and FIG. 11 for juvenile hormone III, in 0.03 mM Ca^++.
Protein concentration was assessed by protein electrophoresis and Western blotting. Cells were lysed is 2% SDS and the lysate sonicated. Protein determinations were made by use of a Bicinchoninic add protein assay (Pierce Chemical Company, Rockford, Ill. USA). Following protein determination, equal amounts at protein (50 μg) were separated by electrophoresis an 7.5% polyacrylamide gels and electroblotted onto polyvinylidene […] membranes (0.2-μ, obtained from Bio-Rad Laboratories Hercules, Calif., USA). Involucrin protein was detected by incubation over-night at 4° C. C. with a polyclonal rabbit anti-human involucrin antibody (1:1000 dilution). The involucrin-specific bands on the autoradiograms were quantitated by densitometry by densitometry. Transglutaminase protein expression was measured in a similar mmaner, using stacking, sample and running buffers containing 4 M urea, and the gels following electrophoresis were washed in 4 M urea, 25 mM TRIS-HCl, pH 7.4, 7.5 mM NaCl, 0.1 mM dithiothreitol (DTT), and 2 mM ethylenediamine tetraacetic acid for 90 minutes prior to electoblotting, allowing the transglutaminase to be detected by antibody. Specific bands on the autoradiograms were quantified by densitometry.

[3] = test system: Normal human keratinocytes; assay: Cornified envelope formation (35S incorporation) in keratinocytes; assay type: cell-based; conditions: 0.03 mM calcium, 48-hour
β-Glucocerebrosidase = β-Glucocerebrosidase activity in epidermis of treated fetal rat skin explants; assay type: cell-based, rats; conditions: clofibrate (300 μM), juvenile hormone III (100 μ), mean of five ± SEM
Experimental: (§1) Epidermis was separated from dermis after incubation in 10 mM ethylenediamine tetraacetic acid (EDTA) in Ca^++- and Mg^++-free phosphate-buffered saline (PBS), pH 7.4, at 37° C. for 30-40 minutes. The tissues were then minced, and homogenized on ice (three times at 15 seconds each with a Polytron homogenizer, followed by sonication twice at ten seconds each at 35% power) in either PBS containing 0.1 mM phenylmethylsulfonyl fluoride (PMSF) and 0.1% Triton X-100 (for β-glucocerebrosidase) or in 10 mM Tris (PH 7.5) containing 0.15 M sucrose and 2 mM EDTA (for steroid sulfatase). β-Glucocerebrosidase activity was measured in the supernatant following centrifugation at 10,000×g for fifteen minutes at 4° C. Steroid sulfatase activity was measured in the microsomal fraction resulting from a […] centrifugation (10 minutes, 4° C.) followed by 60 minutes of 100,000×g ultracentrifugation at 4° C. Protein content was measured by conventional techniques.
β-Glucocerebrosidase) activity was assayed using the synthetic substrate 4-methylumbelliferyl β-D-glucoside (4-MUG). The assays were performed in 5 mM sodium taurocholate in citrate-phosphate buffer (pH 5.6) with 0.5 mM 4-MUG for sixty minutes at 37° C., with a final assay volume of 100 μL, and protein concentration of 1-2 mg/mL. The reaction was terminated with 2 mL of carbonate-bicarbonate buffer (pH 10.5). The fluorescence was then measured at […] (excitation) and 450 λ (emission) and compared with a standard 4-methylumbelliferone (4-MU) curve.
(§2) Skin explants from 17-day fetal rats were incubated for 24 or 48 hours in media individually containing clofibrate (300 μM) and juvenile hormone III […], and control media. Enzyme activity was measured and the results are presented in Table I as the mean values of five determinations±SEM (standard error of the mean). All p values are ≦0.005 compared with controls of the same time period.

Steroid Sulfatase = assay: Steroid sulfatase activity in epidermis of treated fetal rat skin explants; assay type: cell-based, rats; conditions: clofibrate (300 μM), juvenile hormone III (100 μ), mean of five ± SEM
Experimental: as §1
Steroid sulfatase activity was measured by incubating 100 μg of microsomal protein in 0.1 M Tris containing 5.6 mM glucose (pH 7.4) with 15 μM, (^3H) dihydroepiandrosterone sulfate (DHEAS) (15 μCi) in a final volume of 1.1 mL The product, (^3H) DHEA, was extracted with benzene and an aliquot counted by scintillation spectrophotometry.
as §2

SMILES: CC1=C(/C=C/C(C)=C/C=C/C(C)=C/C(=O)O)C(C)(C)CCC1 [all-trans-retinoic acid]
- light microscopy of the epidermis ([1]; various concentrations): did not exhibit a distinct stratum corneum
- acceleration of the appearance of a mature barrier in fetal rodent skin (fetal rodent skin): had no effect

SMILES: CC(C)=CCC/C(C)=C/CC/C(C)=C/CO [farnesol, 3,7,11,trimethyl-2,6,10-dodecatrienol]
- effect on TEWL / barrier function ([2]; 50 μM, two days): markedly decreased the TEWL
- EC50 [2]: ~20 µM
- concentration of maximal effect on barrier development (TEWL) [2]: approximately 50 μM
- light microscopy of the epidermis ([1]; 50 μM, 48 hours): had both a multi-layered stratum granulosum and a stratum corneum
- involucrin protein content (involucrin protein): substantial increases in involucrin protein content
- rate of cornified envelope formation ([3]; 10 μM): substantial increases in the rate of cornified envelope formation

SMILES: CC1=C(/C=C/C(C)=C\C=C\C(C)=C\C(=O)O)C(C)(C)CCC1 [9-cis-retinoic acid]
- light microscopy of the epidermis ([1]; various concentrations): did not exhibit a distinct stratum corneum
- acceleration of the appearance of a mature barrier in fetal rodent skin (fetal rodent skin): had no effect

SMILES: C=C1/C(=C\C=C2/CCC[C@]3(C)[C@@H]([C@H](C)CCCC(C)(C)O)CC[C@@H]23)C[C@@H](O)C[C@@H]1O [1,25-dihydroxyvitamin D3]
- light microscopy of the epidermis ([1]; various concentrations): did not exhibit a distinct stratum corneum
- acceleration of the appearance of a mature barrier in fetal rodent skin (fetal rodent skin): had no effect

SMILES: COC(=O)C=C(C)CCC=C(C)CCC1OC1(C)C (stereo not drawn) [juvenile hormone III, 7-methyl-9-(3,3-dimethyloxiranyl)-3-methyl-2,6-nonadienoic acid methyl ester]
- effect on TEWL / barrier formation ([2]; 100 μM, two days): significantly accelerated barrier formation
- EC50 [2]: ~75 µM
- concentration of maximal effect on barrier development (TEWL) [2]: approximately 250 μM
- light microscopy of the epidermis ([1]; 100 μM, 48 hours): had both a multi-layered stratum granulosum and a stratum corneum
- β-Glucocerebrosidase Activity (β-Glucocerebrosidase; 24-Hour Incubation): 2.89 ± 0.20 nmol/min/mg
- β-Glucocerebrosidase Activity (β-Glucocerebrosidase; 48-Hour Incubation): 5.20 ± 0.62 nmol/min/mg
- Steroid Sulfatase Activity (Steroid Sulfatase; 24-Hour Incubation): 12.55 ± 1.25 pmol/h/mg
- Steroid Sulfatase Activity (Steroid Sulfatase; 48-Hour Incubation): 18.23 ± 2.35 pmol/h/mg
- rate of cornified envelope formation ([3]; 15 μM): substantial increases in the rate of cornified envelope formation
